Structures can show the parent of a compound that is named as a salt.
What follows are molecules tested against T1, rh beta tryptase (Homo sapiens, UniProt Q15661) (assay: tryptase inhibition in vitro test (cleavage of N-p-tosyl-Gly-Pro-Lys-para-nitroaniline, p-nitroaniline measured at 405 nm)). Settings: rh beta tryptase 0.91 U/ml, substrate 0.6 mM, Tris HCl buffer with calcium and heparin, pH 7.4, 37° C., 5 minutes incubation; read-out: Tryptase-inhibiting activity.
T1 construct: purchased Promega
T1 sequence (Q15661 31-275): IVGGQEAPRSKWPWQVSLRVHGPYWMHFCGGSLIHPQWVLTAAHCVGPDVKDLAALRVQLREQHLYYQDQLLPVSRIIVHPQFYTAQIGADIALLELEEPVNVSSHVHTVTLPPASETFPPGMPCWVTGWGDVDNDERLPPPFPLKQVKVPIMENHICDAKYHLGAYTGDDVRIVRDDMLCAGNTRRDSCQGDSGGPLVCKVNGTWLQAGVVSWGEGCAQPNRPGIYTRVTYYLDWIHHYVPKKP
Assay type: biochemical
Protocol: The compounds according to the invention are characterised by their tryptase-inhibiting activity. This ability to inhibit tryptase was investigated using the test described below.
The measurement is carried out in Tris HCl buffer (100 mM), which additionally contains calcium (5 mM) and heparin ([…]), at pH 7.4. The standard used is rh beta tryptase which may be obtained commercially from Promega, for example. The substrate used is N-p-tosyl-Gly-Pro-Lys-para-nitroaniline in a concentration of 0.6 mM. The substrate is digested with tryptase to form p-nitroaniline which can be measured at 405 nm. Usually, an incubation period of 5 minutes and an incubation temperature of 37° C. are chosen. The enzyme activity used is 0.91 U/ml. The measurements are carried out in an Autoanalyser (Cobas Bio) made by Hofmann LaRoche. The potential inhibitory substances are used in concentrations of 10 μM in the screening, the inhibition of the tryptase being given in percent. The IC50 is determined at over 70% inhibition (concentration at which 50% of the enzyme activity is inhibited). After 5 minutes' pre-incubation of the potential inhibitory substances, the substrate is added to start the reaction, the formation of p-nitroaniline being taken as a measurement of the enzyme activity after 5 minutes, after testing the linearity.
`CN(C(=O)CN1CCC(Nc2ccc(Cl)cc2Br)CC1)c1ccc2c(c1)nc(CCc1ccc(C(=N)N)cc1)n2C` [Example 65, N-{2-[2-(4-Amidinophenyl)-ethyl]-1-methyl-benzimidazol-5-yl}-N-methyl-2-[4-(2-bromo-4-chloroamino)-piperid-1-yl]-acetamide, dihydrochloride] showed an IC50 of 0.5 to 3 nM.
`Cn1c(CCc2ccc(C(=N)N)cc2)nc2cc(N(Cc3cccc4ccccc34)C(=O)CN3CCC(Nc4cccc(Cl)c4)CC3)ccc21` [Example 11, N-{2-[2-(4-Amidinophenyl)-ethyl]-1-methyl-benzimidazol-5-yl}-N-[naphth-1-ylmethyl]-2-[4-(3-chlorophenylamino)-piperid-1-yl]-acetamide, dihydrochloride] showed an IC50 of 0.5 to 3 nM.
`COc1cccc(NC(=O)N(Cc2cccc3ccccc23)c2ccc3c(c2)nc(CCc2ccc(C(=N)N)cc2)n3C)c1` [Example 73, N-{2-[2-(4-Amidinophenyl)-ethyl]-1-methyl-benzimidazol-5-yl}-N-[naphth-1-ylmethyl]-N′-(3-methoxy)-phenyl, hydrochloride] was tested, and the IC50 was 31 to 1000 nM.
`CN(C(=O)CN1CCC(Nc2ccccc2Cl)CC1)c1ccc2c(c1)nc(CCc1ccc(C(=N)N)cc1)n2C` [Example 31, N-{2-[2-(4-Amidinophenyl)-ethyl]-1-methyl-benzimidazol-5-yl}-N-methyl-2-[4-(2-chlorophenylamino)-piperid-1-yl]-acetamide, dihydrochloride] was tested, and the IC50 was 0.5 to 3 nM.
`Cn1c(CCc2ccc(C(=N)N)cc2)nc2cc(N(Cc3ccncc3)C(=O)CN3CCC(Nc4ccccn4)CC3)ccc21` [Example 46, N-{2-[2-(4-Amidinophenyl)-ethyl]-1-methyl-benzimidazol-5-yl}-N-[4-pyridylmethyl]-2-[4-(2-pyridylamino)-piperid-1-yl]-acetamide, dihydrochloride] was tested, and the IC50 was 4 to 30 nM.
Molecule `CN(CCCO)C1CCN(CC(=O)N(Cc2cccc3ccccc23)c2ccc3c(c2)nc(CCc2ccc(C(=N)N)cc2)n3C)CC1` [Example 2, N-{2-[2-(4-Amidinophenyl)-ethyl]-1-methyl-benzimidazol-5-yl}-N-[naphth-1-ylmethyl]-2-{4-[N-methyl-N-(3-hydroxypropyl)-amino]-piperid-1-yl}-acetamide, Trihydrochloride] has an IC50 of 4 to 30 nM.
`CN(C(=O)CN1CCC(Nc2ccc(C(C)(C)C)cc2Cl)CC1)c1ccc2c(c1)nc(CCc1ccc(C(=N)N)cc1)n2C` [Example 69, N-{2-[2-(4-Amidinophenyl)-ethyl]-1-methyl-benzimidazol-5-yl}-N-methyl-2-[4-(2-chloro-4-tert.butylamino)-piperid-1-yl]-acetamide, dihydrochloride] was tested, and the IC50 was 31 to 1000 nM.
For `CN(C(=O)CN1CCC(Nc2ccccc2)CC1)c1ccc2c(c1)nc(CCc1ccc(C(=N)N)cc1)n2C` [Example 108, N-{2-[2-(4-Amidinophenyl)-ethyl]-1-methyl-benzimidazol-5-yl}-N-methyl-2-[4-(phenylamino)-piperid-1-yl]-acetamide, dihydrochloride], the IC50 was 4 to 30 nM.
`Cn1c(CCc2ccc(C(=N)N)cc2)nc2cc(N(Cc3ccc(N)cc3)C(=O)CN3CCC(Nc4ccccc4)CC3)ccc21` [Example 44, N-{2-[2-(4-Amidinophenyl)-ethyl]-1-methyl-benzimidazol-5-yl}-N-[4-aminophenyl-methyl]-2-(4-phenylamino-piperid-1-yl)-acetamide, dihydrochloride] gave an IC50 of 4 to 30 nM.
`Cc1ccc(NC2CCN(CC(=O)N(C)c3ccc4c(c3)nc(CCc3ccc(C(=N)N)cc3)n4C)CC2)c(Br)c1` [Example 66, N-{2-[2-(4-Amidinophenyl)-ethyl]-1-methyl-benzimidazol-5-yl}-N-methyl-2-[4-(2-bromo-4-methylamino)-piperid-1-yl]-acetamide, dihydrochloride] gave an IC50 of 0.5 to 3 nM.
With `CN(C(=O)CN1CCC(N(Cc2ccccc2)C2CCCN2)CC1)c1ccc2c(c1)nc(CCc1ccc(C(=N)N)cc1)n2C` (stereo not shown) [Example 43, N-{2-[2-(4-Amidinophenyl)-ethyl]-1-methyl-benzimidazol-5-yl}-N-methyl-2-{4-[(N-benzyl)-2-pyrrolidylamino]-piperid-1-yl}-acetamide, dihydrochloride] the IC50 was 4 to 30 nM.
In the case of `Cn1c(CCc2ccc(C(=N)N)cc2)nc2cc(N(Cc3cccc4ccccc34)C(=O)CN3CCC(Nc4ccc(OCc5ccccc5)cc4)CC3)ccc21` [Example 17, N-{2-[2-(4-Amidinophenyl)-ethyl]-1-methyl-benzimidazol-5-yl}-N-[naphth-1-ylmethyl]-2-[4-(4-benzyloxy-phenylamino)-piperid-1-yl]-acetamide, dihydrochloride], the IC50 is reported as 4 to 30 nM.
`CN(C)c1ccc(CN(C(=O)CN2CCC(Nc3ccccn3)CC2)c2ccc3c(c2)nc(CCc2ccc(C(=N)N)cc2)n3C)c2ccccc12` [Example 51, N-{2-[2-(4-Amidinophenyl)-ethyl]-1-methyl-benzimidazol-5-yl}-N-[4-dimethylamino-naphth-1-ylmethyl]-2-[4-(2-pyridylamino)-piperid-1-yl]-acetamide, dihydrochloride] was tested, and the IC50 was 4 to 30 nM.
`CN(C)CCCN(C)C(=O)N(Cc1cccc2ccccc12)c1ccc2c(c1)nc(CCc1ccc(C(=N)N)cc1)n2C` [Example 78, N-{2-[2-(4-Amidinophenyl)-ethyl]-1-methyl-benzimidazol-5-yl}-N-[naphth-1-ylmethyl]-N′-methyl-N′-(3-dimethylamino-propyl)-urea, hydrochloride] was tested, and the IC50 was 31 to 1000 nM.
`CN(C(=O)CN1CCC(Nc2ccc(Cl)cc2Cl)CC1)c1ccc2c(c1)nc(CCc1ccc(C(=N)N)cc1)n2C` [Example 32, N-{2-[2-(4-Amidinophenyl)-ethyl]-1-methyl-benzimidazol-5-yl}-N-methyl-2-[4-(2,4-dichlorophenylamino)-piperid-1-yl]-acetamide, dihydrochloride] was tested, and the IC50 was 0.5 to 3 nM.
`Cn1c(CCc2ccc(C(=N)N)cc2)nc2cc(N(Cc3cccc4ccccc34)C(=O)CN3CCC(Nc4cccnc4)CC3)ccc21` [Example 26, N-{2-[2-(4-Amidinophenyl)-ethyl]-1-methyl-benzimidazol-5-yl}-N-[naphth-1-ylmethyl]-2-[4-(3-pyridylamino)-piperid-1-yl]-acetamide, dihydrochloride] gave an IC50 of 0.5 to 3 nM.
With `CN(C(=O)CN1CCC(Nc2ccccc2C(=N)N)CC1)c1ccc2c(c1)nc(CCc1ccc(C(=N)N)cc1)n2C` [Example 40, N-{2-[2-(4-Amidinophenyl)-ethyl]-1-methyl-benzimidazol-5-yl}-N-methyl-2-[4-(2-amidinophenylamino)-piperid-1-yl]-acetamide, dihydrochloride] the IC50 was 31 to 1000 nM.
Molecule `Cn1c(CCc2ccc(C(=N)N)cc2)nc2cc(N(Cc3cccc4ccccc34)C(=O)CN3CCC(Nc4ccccc4)CC3)ccc21` [Example 1, N-{2-[2-(4-Amidinophenyl)-ethyl]-1-methyl-benzimidazol-5-yl}-N-[naphth-1-ylmethyl]-2-(4-phenylamino-piperid-1-yl)-acetamide, Dihydrochloride] has an IC50 of 4 to 30 nM.
Work on `Cn1c(CCc2ccc(C(=N)N)cc2)nc2cc(N(Cc3cccc4ccccc34)C(=O)CN3CCC(Nc4ccccn4)CC3)ccc21` [Example 6, N-{2-[2-(4-Amidinophenyl)-ethyl]-1-methyl-benzimidazol-5-yl}-N-[naphth-1-ylmethyl]-2-[4-(2-pyridylamino-piperid-1-yl]-acetamide, dihydrochloride] yielded an IC50 of 0.5 to 3 nM.
`Cn1c(CCc2ccc(C(=N)N)cc2)nc2cc(N(Cc3cccc4ccccc34)C(=O)CN3CCC(Nc4ccc(-c5ccccc5)cc4)CC3)ccc21` [Example 23, N-{2-[2-(4-Amidinophenyl)-ethyl]-1-methyl-benzimidazol-5-yl}-N-[naphth-1-ylmethyl]-2-[4-(4-biphenylamino)-piperid-1-yl]-acetamide, dihydrochloride] was tested, and the IC50 was 4 to 30 nM.
`Cn1c(CCc2ccc(C(=N)N)cc2)nc2cc(N(Cc3cccc4ccccc34)C(=O)NC3(Cc4ccccc4)CCNCC3)ccc21` [Example 77, N-{2-[2-(4-Amidinophenyl)-ethyl]-1-methyl-benzimidazol-5-yl}-N-[naphth-1-ylmethyl]-N′-[4-(benzyl)-piperidin-4-yl)-urea, hydrochloride] gave an IC50 of 4 to 30 nM.
Work on `CN(C(=O)CN1CCC(Nc2ccc(Br)cc2Cl)CC1)c1ccc2c(c1)nc(CCc1ccc(C(=N)N)cc1)n2C` [Example 62, N-{2-[2-(4-Amidinophenyl)-ethyl]-1-methyl-benzimidazol-5-yl}-N-methyl-2-[4-(2-chloro-4-bromoamino)-piperid-1-yl]-acetamide, dihydrochloride] yielded an IC50 of 0.5 to 3 nM.
`Cn1c(CCc2ccc(C(=N)N)cc2)nc2cc(NC(=O)N3CCC(Nc4ccccn4)CC3)ccc21` [Example 82, N-{2-[2-(4-Amidinophenyl)-ethyl]-1-methyl-benzimidazol-5-yl}-N′-[4-(2-pyridyl)-amino]-piperid-1-ine urea, hydrochloride] was tested, and the IC50 was 31 to 1000 nM.
In the case of `CN(C(=O)CN1CCC(Nc2cccc(Cl)c2)CC1)c1ccc2c(c1)nc(CCc1ccc(C(=N)N)cc1)n2C` [Example 106, N-{2-[2-(4-Amidinophenyl)-ethyl]-1-methyl-benzimidazol-5-yl}-N-methyl-2-[4-(3-chlorophenylamino)-piperid-1-yl]-acetamide, dihydrochloride], the IC50 is reported as 0.5 to 3 nM.
With `Cn1c(CCc2ccc(C(=N)N)cc2)nc2cc(N(Cc3cccc4ccccc34)C(=O)Nc3cccc4ccccc34)ccc21` [Example 75, N-{2-[2-(4-Amidinophenyl)-ethyl]-1-methyl-benzimidazol-5-yl}-N-[naphth-1-ylmethyl]-N′-(1-naphthyl)-urea, hydrochloride] the IC50 was 4 to 30 nM.
